# Measured values published in article PMC12196251, “Synthesis of New DltA Inhibitors and Their Application as Adjuvant Antibiotics to Re-Sensitize Methicillin-Resistant Staphylococcus aureus” (Molecules, 2025).
# Values joined by “and” are separate entries in the source; they are usually repeats but may differ in a detail not shown here. Equal entries are not always repeated. Structures can show the parent of a compound that is named as a salt. Where two headings read alike, the source gives them in different places.
# How the values were obtained:
# [1] = target: T1, recombinant DltA from E. faecalis (Enterococcus faecalis, UniProt Q830N0); experiment: DltA enzyme inhibition, PPi release coupled-enzyme assay; type: biochemical
# T1 construct: made in house; host or cells: E. coli
# T1 sequence (Q830N0 1-506): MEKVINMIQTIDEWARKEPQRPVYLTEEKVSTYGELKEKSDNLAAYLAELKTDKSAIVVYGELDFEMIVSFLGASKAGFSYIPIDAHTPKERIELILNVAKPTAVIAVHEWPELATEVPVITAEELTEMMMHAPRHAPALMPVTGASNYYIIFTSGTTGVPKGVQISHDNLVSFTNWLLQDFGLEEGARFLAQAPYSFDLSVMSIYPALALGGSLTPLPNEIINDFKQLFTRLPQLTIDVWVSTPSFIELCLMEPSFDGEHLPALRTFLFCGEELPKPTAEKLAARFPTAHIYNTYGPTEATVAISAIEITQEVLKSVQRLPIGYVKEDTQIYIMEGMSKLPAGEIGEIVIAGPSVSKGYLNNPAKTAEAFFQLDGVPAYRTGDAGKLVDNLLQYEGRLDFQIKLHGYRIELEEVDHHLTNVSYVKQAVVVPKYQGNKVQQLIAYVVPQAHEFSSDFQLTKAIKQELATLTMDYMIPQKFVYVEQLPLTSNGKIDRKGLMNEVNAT
# Procedure: (§1) All new compounds were then evaluated in vitro for enzyme inhibition against recombinant DltA from E. faecalis or S. epidermis. Half-maximal inhibitory concentrations (IC50) were then determined by measuring the amount of PPi released at different inhibitor concentrations (Table 2). […] We noticed the DltA enzyme tolerated the presence of various modifications on the 2′-position, but the activity was inversely related to the size of the introduced group. […] Despite a good predicted binding affinity (−8.7 Kcal/mol), we hypothesize that the lower activity could be explained by the fact that the squaramide nitrogen atom might not be under its anionic form, as is the case with sulfamate 1.
# (§2) The DltA-catalyzed ATP-hydrolysis reaction was monitored in vitro via PPi release (DltA +D-alanine +ATP → DltA-DAla-AMP +PPi) using a coupled-enzyme assay. The purified DltA was pretreated with DltC purified from E. coli to clear D-Ala-AMP already present in the enzyme preparation after expression in E. coli. Holo-DltC is the natural protein partner of DltA, and DltC purified from E. coli BL21 (DE3) contained 51% of this active form of DltC as determined by HPLC analysis. DltA was pretreated with DltC (ratio 1:1.2), incubated for 30 min at 37 °C and 30 min at 4 °C. Three successive washes were realized on Amicon Ultra-2 Centrifugal Filter Unit—Ultracel 30 membrane 30 kDa MWCO (Merck, Darmstadt, Germany) with elution buffer EB at 4 °C. The components of the coupled enzyme assay included 1.5 μM pre-treated DltA, 20 μM of ATP, and 14 μM of D-alanine. The half-maximal inhibitory concentration (IC50) of potential DltA inhibitors was determined by the addition of different concentrations of the synthesized molecules. PPi release was determined using the PiPer—Pyrophosphate assay kit (Invitrogen, Waltham, MA, USA) according to the recommendation of the supplier. Reactions were carried out in 96-well Chimney Style, non-binding Microplates with μClear Film Bottom (Greiner Bio-one, Frickenhausen, Germany). Plates were incubated at 37 °C for 5 h and read in a FlexStation 3 Multi-Mode plate reader (Molecular Devices, Silicon Valley, CA, USA), with λ excitation of 530 nm and λ emission of 590 nm. Experiments were conducted in sextuplicate, and the IC50 was determined by linear regression of the curve.
# [2] = target: T2, recombinant DltA from S. epidermidis (Staphylococcus epidermidis, UniProt Q5HQN0); experiment: as above; type: biochemical
# T2 construct: made in house; host or cells: E. coli
# T2 sequence (Q5HQN0 1-485): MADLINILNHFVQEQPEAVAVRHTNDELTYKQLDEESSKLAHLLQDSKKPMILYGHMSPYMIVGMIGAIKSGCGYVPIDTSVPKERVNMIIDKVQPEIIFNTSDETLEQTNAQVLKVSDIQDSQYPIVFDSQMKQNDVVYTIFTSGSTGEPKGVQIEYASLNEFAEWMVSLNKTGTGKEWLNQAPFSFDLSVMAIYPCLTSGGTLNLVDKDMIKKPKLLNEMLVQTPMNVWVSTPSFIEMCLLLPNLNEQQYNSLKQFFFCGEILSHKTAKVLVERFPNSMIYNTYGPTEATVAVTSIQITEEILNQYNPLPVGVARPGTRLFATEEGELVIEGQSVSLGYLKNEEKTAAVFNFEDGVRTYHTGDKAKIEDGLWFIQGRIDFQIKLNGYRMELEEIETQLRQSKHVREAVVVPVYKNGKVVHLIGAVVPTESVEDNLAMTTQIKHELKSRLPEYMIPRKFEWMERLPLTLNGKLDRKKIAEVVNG
# Procedure: as §1, §2
# [3] = test system: D-alanyl ester of the MRSA cell wall; experiment: Quantification of D-alanyl ester in the bacterial cell wall; type: cell-based, S. aureus; conditions: inhibitor at 1 mM, value (spread)
# Procedure: (§3) All these compounds were also tested […] against MRSA clinical isolates. […] The minimum inhibitory concentrations (MICs) of imipenem (IPM) were next determined in the absence or presence of 1 mM of the different DltA inhibitors to evaluate their potential to re-sensitize MRSA to this β-lactam (Table 2). […] To clarify this hypothesis, quantification of D-alanyl ester of the MRSA cell wall was performed as previously described in the presence of inhibitors (Table 2). […] These new series represent a promising structure entry not reported yet for the inhibition of DltA and the re-sensitization of bacteria toward known antibiotics.
# Ester-linked D-alanines were quantified as described previously, with the following modifications. Cultures were grown in 5 mL of BHI supplemented with DltA inhibitor to a final concentration of 0.05, 0.1, 0.25, 0.5, 0.75, or 1 mM for 16 h at 37 °C under shaking (120 rpm). Briefly, the quantification is based on the oxidation of a chromogen by H2O2 generated when free D-alanines are oxidized by a D-amino acid oxidase. Three independent experiments with duplicate samples were performed.
# [4] = test system: MRSA clinical isolates; experiment: MIC of imipenem against MRSA in absence or presence of DltA inhibitor; type: cell-based, S. aureus; conditions: in presence of 1 mM of the DltA inhibitor; for MIC: Staphylococcus aureus, MRSA
# Procedure: as §3
# Colonies from BHI agar plates were suspended in saline solution (0.9% NaCl) and adjusted to an OD600 of 0.5. For growth kinetics determination, 96-well microplates (Starlab, Orsay, France) containing 200 μL of fresh BHI medium were inoculated with bacterial suspensions to an OD600 of 0.02 with a wide range of DltA inhibitors (from 0 to 2 mM). Plates were incubated at 37 °C with shaking (orbital amplitude of 3 mm) in a microplate reader (InfiniteM Nano, Tecan, Seoul, Republic of Korean). OD600nm was measured every 10 min for 24 h. Determination of MIC/MBC of antibiotics and bacterial survival assays were performed as previously described using BHI medium. The DltA inhibitor was diluted in pure water and added to the growth medium to a final concentration of 0, 0.1, 0.25, 0.5, 0.75, or 1 mM.
# [5] = test system: MRSA clinical isolates; set-up: method as in PMID 31339997, PMID 34450626, PMID 40116514; conditions: S. aureus (MRSA); in presence of inhibitor 1; previously reported; cited from earlier work
# [6] = target: DltA; set-up: method as in PMID 15955059; conditions: DltA inhibitor; cited from earlier work
# [7] = target: T1, recombinant DltA from E. faecalis; set-up: method as in doi:10.1002/ejoc.202300258; conditions: previous reported work; cited from earlier work
# [8] = S. aureus (MRSA), read-out: MIC of IPM
# [9] = read-out: MIC of IPM, S. aureus (MRSA)
SMILES,IC50 [1] [nM],IC50 [2] [nM],Reduction in D-Ala Ester Residues [3],"MIC [4, 8] [µg/mL]",MIC of IPM [5] [µg/mL],Ki [6] [nM],MIC of IPM ([4]; S. aureus (MRSA)) [µg/mL],"MIC [4, 9] [µg/mL]",IC50 [7] [nM]
"CC(N)C(=O)NS(=O)(=O)NCC1OC(n2cnc3c(N)ncnc32)C(O)C1O [Compound 30, (R)-2-amino-N-(N-(((2R,3S,4R,5R)-5-(6-amino-9H-purin-9-yl)-3,4-dihydroxytetrahydrofuran-2-yl)methyl)sulfamoyl)propenamide salt]",1800,2000,80.9% and 80.9 (18.4) %,1,,,,,
"C[C@@H](N)C(=O)NS(=O)(=O)OC[C@H]1O[C@@H](n2cnc3c(N)ncnc32)[C@H](O)[C@@H]1O [Compound 1, reference compound]",2300,2400,86.7% and 86.7 (10.5) %,,0.25,200,,,
"C[C@@H](N)C(=O)NS(=O)(=O)OC[C@H]1O[C@@H](n2cnc3c(N)ncnc32)[C@@H](N=[N+]=[N-])[C@@H]1O [Compound 9, ((2R,3S,4S,5R)-5-(6-amino-9H-purin-9-yl)-4-azido-3-hydroxytetrahydrofuran-2-yl)methyl (D-alanyl)sulfamate salt]",3800,,74.9% and 74.9 (9.4) %,8,,,,,
"C[C@@H](N)C(=O)c1cn(C[C@H]2O[C@@H](n3cnc4c(N)ncnc43)[C@H](F)[C@@H]2O)nn1 [Compound 50, (R)-2-amino-1-(1-(((2R,3R,4R,5R)-5-(6-amino-9H-purin-9-yl)-4-fluoro-3-hydroxytetrahydrofuran-2-yl)methyl)-1H-1,2,3-triazol-4-yl)propan-1-one salt]",14700,,8.6 (1.1) %,,,,32,16 to 64,
C[C@@H](N)C(=O)c1cn(C[C@H]2O[C@@H](n3cnc4c(N)ncnc43)[C@H](O)[C@@H]2O)nn1 [Compound 40],,,,,,,,8,4500
C[C@@H](N)C(=O)c1cn(C/C(CO)=C(\F)Cn2cnc3c(N)ncnc32)nn1 [Compound 39],,,0%,,,,,16,7400
